# Laboratory results: ChEMBL document CHEMBL4811216, “Chemotherapy for human schistosomiasis: how far have we come? What's new? Where do we go from here?” (RSC Med Chem, 2020)
# Experiments:
# Schistosoma mansoni [1] = experiment: Antischistosomal activity against Schistosoma mansoni incubated for 72 hrs by microscopic method; type: functional, organism-based
# Schistosoma mansoni [2] = experiment: Antischistosomal activity against Schistosoma mansoni NTS assessed as worm mortality at 10 uM measured up to 72 hrs by microscopic method relative to control; type: functional; conditions: time hrs <=72
# Schistosoma mansoni [3] = experiment: Antischistosomal activity against adult Schistosoma mansoni measured up to 72 hrs by microscopic method; type: functional, organism-based
# [4] = target: HDAC1 (histone deacetylase 1) (Homo sapiens, UniProt Q13547); experiment: Inhibition of human HDAC1 using Z-Lys(Ac)-AMC as substrate at 1 uM by fluorimetric method relative to control; conditions: HDAC1 enzyme, probe Z-Lys(Ac)-AMC
# Sequence of HDAC1 (histone deacetylase 1) (Q13547 whole entry): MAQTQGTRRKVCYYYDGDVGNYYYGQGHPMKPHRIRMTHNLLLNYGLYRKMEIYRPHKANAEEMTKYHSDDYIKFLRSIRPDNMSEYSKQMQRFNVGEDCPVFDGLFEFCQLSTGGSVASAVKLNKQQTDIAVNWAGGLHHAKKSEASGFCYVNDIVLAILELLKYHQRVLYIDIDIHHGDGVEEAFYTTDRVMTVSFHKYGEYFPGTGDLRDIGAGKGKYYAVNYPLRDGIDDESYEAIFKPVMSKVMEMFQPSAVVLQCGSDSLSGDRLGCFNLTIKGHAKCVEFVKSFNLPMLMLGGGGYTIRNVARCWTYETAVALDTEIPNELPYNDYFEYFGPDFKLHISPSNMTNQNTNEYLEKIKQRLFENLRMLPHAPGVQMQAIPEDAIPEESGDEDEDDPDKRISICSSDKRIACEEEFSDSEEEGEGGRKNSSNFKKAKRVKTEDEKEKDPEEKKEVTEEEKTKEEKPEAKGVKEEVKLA
# Schistosoma mansoni [5] = experiment: Antischistosomal activity against adult Schistosoma mansoni assessed as worm mortality at 10 uM measured up to 72 hrs by microscopic method relative to control; type: functional; conditions: time hrs <=72
# Schistosoma haematobium = experiment: Antischistosomal activity against Schistosoma haematobium at 10 uM measured after 72 hrs relative to control; type: functional
# Schistosoma mansoni [6] = experiment: microbe, parasite or virus in culture; conditions: Liberian, 72 h
# Description: Antischistosomal activity against Schistosoma mansoni Liberian NTS incubated for 72 hrs by microscopic method
# Schistosoma mansoni [7] = experiment: microbe, parasite or virus in culture; conditions: 72 h
# Description: Antischistosomal activity against Schistosoma mansoni incubated for 72 hrs by inverted microscopic method
Compound,IC50 (Schistosoma mansoni [1]) [nM],mortality at 10 µM (Schistosoma mansoni [2]) [%],IC50 (Schistosoma mansoni [3]) [nM],also measured
CCNCCNc1cc(-c2ccc(C(F)(F)F)cc2)c(C#N)c2nc3cc(Cl)ccc3n12,,> 70,200,
O=C(NO)c1cccc(C(=O)NOCc2cccc3ccccc23)c1,,,,inhibition at 1 µM [4]: < 10%
Cc1csc(Nc2cc(C(F)(F)F)c(C#N)c3nc4ccccc4n23)n1,,> 70,200,mortality at 10 µM (Schistosoma mansoni [5]): > 60%
N#Cc1c(C(F)(F)F)cc(Nc2ccnc(F)c2)n2c1nc1ccccc12,,> 70,200,mortality at 10 µM (Schistosoma mansoni [5]): > 60%
CCNCCNc1cc(C2CCCC2)c(C#N)c2nc3ccccc3n12,,> 70,200,
N#Cc1c(C(F)(F)F)cc(Nc2ccccc2)n2c1nc1ccccc12,,> 70,200,mortality at 10 µM (Schistosoma mansoni [5]): > 60%
N#Cc1c(C(F)(F)F)cc(Nc2ccc(CN3CCOCC3)cc2)n2c1nc1ccccc12,,> 70,200,mortality at 10 µM (Schistosoma mansoni [5]): > 60%
O=C(NO)c1cccc(C(=O)NOCCc2ccccc2)c1,,,,inhibition at 1 µM [4]: < 10%
Cc1cc(C)cc(CONC(=O)c2cccc(C(=O)NO)c2)c1,,,,inhibition at 1 µM [4]: < 10%
CNc1nnc(Sc2cnn(-c3ccccc3)c(=O)c2Cl)s1,,,,Activity (Schistosoma haematobium): 100%; IC50 (Schistosoma mansoni [6]): 400 nM; IC50 (Schistosoma mansoni [7]): 2500 nM
O=C(NO)c1cccc(C(=O)NOCc2cccc(Cl)c2Cl)c1,,,,inhibition at 1 µM [4]: < 10%
N#Cc1c(C(F)(F)F)cc(Nc2ccc3nc(NCCN4CCCC4)oc3c2)n2c1nc1ccccc12,,> 70,200,mortality at 10 µM (Schistosoma mansoni [5]): > 60%
CCNCCNc1cc(-c2ccc(C(F)(F)F)cc2)c(C#N)c2nc3cccc(Br)c3n12,,> 70,200,
Nc1nc(NCC2CCC(CNS(=O)(=O)c3ccc4ccccc4c3)CC2)nc2ccccc12 (stereo unspecified),,,,IC50 (Schistosoma mansoni [6]): 600 nM; IC50 (Schistosoma mansoni [7]): 2000 nM
N#Cc1c(-c2ccc(C(F)(F)F)cc2)cc(NC2CCC(N)CC2)n2c1nc1cc(Cl)cc(Cl)c12 (stereo unspecified),,> 70,200,
O=C(NO)c1cccc(C(=O)NOCCCc2ccccc2)c1,,,,inhibition at 1 µM [4]: < 10%
N#Cc1ccc(Nc2cc(C(F)(F)F)c(C#N)c3nc4ccccc4n23)cc1,,> 70,200,mortality at 10 µM (Schistosoma mansoni [5]): > 60%
CC(C)=CCC/C(C)=C\CNCCNC1C2CC3CC(C2)CC1C3 (stereo unspecified),,,,Activity (Schistosoma haematobium): 82.5%; IC50 (Schistosoma mansoni [6]): 2900 nM; IC50 (Schistosoma mansoni [7]): 4900 nM
c1ccc(Oc2ccc(-c3cncc(-c4ccc5[nH]ccc5c4)n3)cc2)cc1,,,,Activity (Schistosoma haematobium): 75.4%; IC50 (Schistosoma mansoni [6]): 2200 nM; IC50 (Schistosoma mansoni [7]): 3400 nM
CN1CCC(Nc2cc(-c3ccc(C(F)(F)F)cc3)c(C#N)c3nc4cc(Cl)c(Cl)cc4n23)CC1,,> 70,200,

Compound,IC50 (Schistosoma mansoni [1]) [nM],mortality at 10 µM (Schistosoma mansoni [2]) [%],IC50 (Schistosoma mansoni [3]) [nM],also measured
CNC1CCN(c2cc(-c3ccc(C(F)(F)F)cc3)c(C#N)c3nc4ccccc4n23)C1 (stereo unspecified),,> 70,200,
CCNCCNc1cc(-c2ccc(C(F)(F)F)cc2)c(C#N)c2nc3cccc(Cl)c3n12,,> 70,200,
N#Cc1c(C(F)(F)F)cc(Nc2cnccn2)n2c1nc1ccccc12,200,> 70,200,mortality at 10 µM (Schistosoma mansoni [5]): > 60%
COc1ccc(Nc2cc(C(F)(F)F)c(C#N)c3nc4ccccc4n23)cc1,,> 70,200,mortality at 10 µM (Schistosoma mansoni [5]): > 60%
CCNCCNc1cc(-c2ccc(C(F)(F)F)cc2)c(C#N)c2nc3cc(Cl)c(Cl)cc3n12,,> 70,200,
COc1ncnc(Nc2cc(C(F)(F)F)c(C#N)c3nc4ccccc4n23)c1OC,200,> 70,200,mortality at 10 µM (Schistosoma mansoni [5]): > 60%
CN(C)CCNc1nc2ccc(Nc3cc(C(F)(F)F)c(C#N)c4nc5ccccc5n34)cc2o1,,> 70,200,mortality at 10 µM (Schistosoma mansoni [5]): > 60%
CCNCCNc1cc(-c2ccc(Cl)c(Cl)c2)c(C#N)c2nc3ccccc3n12,,> 70,200,
CS(=O)(=O)c1ccc(Nc2cc(C(F)(F)F)c(C#N)c3nc4ccccc4n23)cc1,,> 70,200,mortality at 10 µM (Schistosoma mansoni [5]): > 60%
COc1cccc(-n2nnnc2S(C)(=O)=O)c1,,,,Activity (Schistosoma haematobium): 87.7%; IC50 (Schistosoma mansoni [6]): 900 nM; IC50 (Schistosoma mansoni [7]): 6800 nM
CCNCCNc1cc(-c2ccc(C(F)(F)F)cc2)c(C#N)c2nc3ncccc3n12,,> 70,200,
CCNCCNc1cc(C2CCCCC2)c(C#N)c2nc3ccccc3n12,,> 70,200,
Cn1c(=O)c2c(S(C)(=O)=O)snc2n(C)c1=O,,,,Activity (Schistosoma haematobium): 75.4%; IC50 (Schistosoma mansoni [6]): 800 nM; IC50 (Schistosoma mansoni [7]): 4700 nM
CCN(CC)CCCC(C)Nc1cc(-c2ccc(C(F)(F)F)cc2)c(C#N)c2nc3ccccc3n12 (stereo unspecified),,> 70,200,
CCNCCNc1cc(-c2ccc(C(F)(F)F)cc2)c(C#N)c2nc3c(Cl)cc(Cl)cc3n12,,> 70,200,
N#Cc1c(-c2ccc(C(F)(F)F)cc2)cc(NCCn2ccnc2)n2c1nc1ccccc12,,> 70,200,
CCNCCNc1cc(-c2cccc(C(F)(F)F)c2)c(C#N)c2nc3ccccc3n12,,> 70,200,
CN1CCC(Oc2cc(-c3ccc(C(F)(F)F)cc3)c(C#N)c3nc4ccccc4n23)CC1,,> 70,200,
CCNCCNc1cc(-c2ccc(C(F)(F)F)cc2)c(C#N)c2nc3ccccc3n12,,> 70,200,
O=C(Nc1ccc(C(F)(F)F)c(C(F)(F)F)c1)c1cc(Cl)ccc1O,,,,Activity (Schistosoma haematobium): 100%; IC50 (Schistosoma mansoni [6]): 200 nM; IC50 (Schistosoma mansoni [7]): 2100 nM

# The next lines start with results.
IC50 (Schistosoma mansoni [1]) [nM],Compound,mortality at 10 µM (Schistosoma mansoni [2]) [%],IC50 (Schistosoma mansoni [3]) [nM],also measured
200,N#Cc1c(C(F)(F)F)cc(NCc2ccc(F)cc2)n2c1nc1cc(Cl)c(Cl)cc12,,,
200,Cc1ccc(CNc2cc(C(F)(F)F)c(C#N)c3nc4cc(Cl)c(Cl)cc4n23)cc1,,,
1600,Clc1ccc2c(N3CCNCCN(c4ccnc5cc(Cl)ccc45)CCNCC3)ccnc2c1,,,
200,N#Cc1c(C(F)(F)F)cc(Nc2ccc(OC(F)(F)F)cc2)n2c1nc1cc(Cl)c(Cl)cc12,,,
200,N#Cc1c(C(F)(F)F)cc(Nc2ccccc2OC(F)(F)F)n2c1nc1ccccc12,,,
200,N#Cc1c(C(F)(F)F)cc(NCc2cccc(F)c2)n2c1nc1cc(Cl)c(Cl)cc12,,,
200,N#Cc1c(C(F)(F)F)cc(Nc2ccc(OC(F)(F)F)cc2)n2c1nc1ccccc12,,,
200,N#Cc1c(C(F)(F)F)cc(NCc2ccco2)n2c1nc1cc(Cl)c(Cl)cc12,,,
200,FC(F)(F)Oc1ccc(Nc2cc(C(F)(F)F)cc3nc4ccccc4n23)cc1,,,
200,N#Cc1c(C(F)(F)F)cc(NCc2cccs2)n2c1nc1cc(Cl)c(Cl)cc12,,,
200,N#Cc1c(C(F)(F)F)cc(NCc2ccc(OC(F)(F)F)cc2)n2c1nc1cc(Cl)c(Cl)cc12,,,
200,N#Cc1c(C(F)(F)F)cc(NCc2ccc(F)cc2)n2c1nc1cc(Cl)cc(Cl)c12,,,
200,N#Cc1ccc(S(=O)(=O)Nc2cc(C(F)(F)F)cc3nc4cc(Cl)c(Cl)cc4n23)cc1,,,
200,N#Cc1c(C(F)(F)F)cc(Nc2cccc(OC(F)(F)F)c2)n2c1nc1ccccc12,,,
200,O=S(=O)(Nc1cc(C(F)(F)F)cc2nc3cc(Cl)c(Cl)cc3n12)c1ccc(OC(F)(F)F)cc1,,,
200,CC(Nc1cc(C(F)(F)F)cc2nc3cc(Cl)c(Cl)cc3n12)c1ccc(S(C)(=O)=O)cc1 (stereo unspecified),,,
200,N#Cc1c(C(F)(F)F)cc(NCc2ccccn2)n2c1nc1cc(Cl)c(Cl)cc12,,,
